Assay results as given in patent US6485756B1, “Stable, homogeneous natural product extracts containing polar and apolar fractions” (Collaborative Technologies, Inc., priority 1999, dated 2002).
Values joined by “and” are separate entries in the source; they are usually repeats but may differ in a detail not shown here. Equal entries are not always repeated.

Key:
Human Leukocyte Elastase = target: T1, Human Leukocyte Elastase (Homo sapiens, UniProt P08246); conditions: Ying et al., Biochem. J. 1991; cited from earlier work
T1 sequence (P08246 30-267): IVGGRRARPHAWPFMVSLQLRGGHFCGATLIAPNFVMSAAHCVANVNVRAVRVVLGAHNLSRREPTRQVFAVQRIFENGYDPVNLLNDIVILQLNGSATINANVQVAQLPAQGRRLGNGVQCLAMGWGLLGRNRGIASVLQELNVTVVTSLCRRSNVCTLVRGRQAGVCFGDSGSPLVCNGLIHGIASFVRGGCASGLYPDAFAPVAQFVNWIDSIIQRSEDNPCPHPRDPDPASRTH

Lipid Peroxidation assay = format: biochemical; conditions: for OD532 at indicated time (min) 0: 0 min; for OD532 at indicated time (min) 60: 60 min; for OD532 at indicated time (min) 120: 120 min; for OD532 at indicated time (min) 240: 240 min
Experimental: Lipid Peroxidation Assay Thiobarbituric acid (“TBA”; […]), sodium dodecyl sulfate ([…]), butylated hydroxytoluene (B1378), […]) and phosphate-buffered saline (“PBS”; 1000-3) were obtained from Sigma. Lecithin (429415) was obtained from Calbiochem. Ethanol (122898) was obtained from Aaper Alcohol and Chemical Co. Vitamin C (95209) was obtained from Fluka. Ferric chloride (AR5029) was obtained from Mallinckrodt. Optical densities were determined using a SpectraMax 250 spectrophotometer (Molecular Devices). Ultraviolet irradiation was performed using a model VWR […] Chromato-Vue transilluminator (VWR Scientific). The Lipid Peroxidation assay measures inhibition of UV-induced lipid oxidation. The reaction was performed at room temperature by irradiating liposome solutions, containing varying concentrations of test samples, with ultraviolet C light. The extent of lipid peroxidation induced by the UV light was determined by measuring the consequent production of malondialdehyde that results from breakdown of oxidized lipid. […] Vitamin C, a peroxyl radical scavenger, was included in each assay as a control for inhibition of lipid oxidation. Duplicate aliquots of the irradiation mixtures were harvested at several time points and their malondialdehyde contents were measured using the “thiobarbituric acid reaction”. […] The mixtures were heated at 100° C. for 15 minutes, cooled to room temperature and their absorbencies were read at 532 and 650 nm. The readings at 650 nm were subtracted from those at 532 nm to correct for turbidity. These corrected absorbencies were plotted as a function of irradiation time and the rate of lipid peroxidation was determined by linear regression curve fit.

Cloudman S91 melanocytes = assay: Melanocyte pigmentation assay; format: cell-based; conditions: conc. 30 μm; positive control
Experimental: Melanocyte Pigmentation Assay
The following materials were used in the melanocyte pigmentation assay. Cloudman S91 cells (36-1-38C8-16) were obtained from American Type Culture Collection. Dulbecco's Modified Eagle's Medium (“DMEM”; 11885-076), heat-inactivated horse serum (26050-088), heat-inactivated fetal bovine serum (10082-147) and 5000 units/ml penicillin/50 μg/ml streptomycin (15070-063) were obtained from Gibco BRL. Phosphate-buffered saline (PBS; 1000-3), dimethyl sulfoxide (D2650), hydroquinone (H9003), α-melanocyte stimulating hormone (M4135), trichloroacetic acid (T9159) and sodium hydroxide (S8045) were obtained from Sigma. Optical densities were determined using a Dynatech MR5000 spectrophotometer.
The melanocyte pigmentation assay measures a test sample's ability to inhibit pigmentation. […] After a 5-day treatment period with each condition tested in triplicate wells, the cells were harvested by washing with PBS and adding 5% trichloroacetic acid to each well. […] 200 μl of each digestion mixture was then transferred to a well of a 96-well microtiter plate and optical densities were read at 405 nm.
Inhibition of pigmentation is expressed as the percentage decrease in optical density compared to that for untreated cells (no test sample or hydroquinone). […]

[1] = test system: Dopa Oxidase Activity of a Mushroom Tyrosinase; conditions: Shin et al., BBRC 1998; cited from earlier work

C[C@H]1[C@H](C)CC[C@]2(C(=O)O)CC[C@]3(C)C(=CC[C@@H]4[C@@]5(C)CC[C@H](O)C(C)(C)[C@@H]5CC[C@]43C)[C@H]12 [Ursolic acid]
elastase inhibition (in words) (Human Leukocyte Elastase): potent elastase inhibitor

O=C1O[C@H]([C@@H](O)CO)C(O)=C1O [Vitamin C]
% antioxidant effect (Lipid Peroxidation assay; Sample conc. 0.03 %): 82% and 90% | Rate of Lipid Peroxidation (Lipid Peroxidation assay; Sample conc. 0.03 %): 54 MOD532/min and 30 MOD532/min | OD532 at indicated time (min) 0 (Lipid Peroxidation assay; Sample conc. 0.03 %): 0.012 and 0.014 | OD532 at indicated time (min) 60 (Lipid Peroxidation assay; Sample conc. 0.03 %): 0.013 and 0.0125 | OD532 at indicated time (min) 120 (Lipid Peroxidation assay; Sample conc. 0.03 %): 0.016 and 0.014 | OD532 at indicated time (min) 240 (Lipid Peroxidation assay; Sample conc. 0.03 %): 0.025 and 0.0205 | % antioxidant effect (Lipid Peroxidation assay; Sample conc. 0.3 %): 97% and 99% | OD532 at indicated time (min) 0 (Lipid Peroxidation assay; Sample conc. 0.3 %): 0.011 | OD532 at indicated time (min) 60 (Lipid Peroxidation assay; Sample conc. 0.3 %): 0.012 and 0.011 | OD532 at indicated time (min) 120 (Lipid Peroxidation assay; Sample conc. 0.3 %): 0.013 and 0.011 | OD532 at indicated time (min) 240 (Lipid Peroxidation assay; Sample conc. 0.3 %): 0.012

Oc1ccc(O)cc1 [hydroquinone]
% inhibition (Cloudman S91 melanocytes): 28% | Culture pigmentation (OD405nm) mean (Cloudman S91 melanocytes): 0.747

Oc1cc(O)cc(/C=C/c2ccc(O)cc2O)c1 [oxyresveratrol]
tyrosinase inhibition (in words) [1]: very potent tyrosinase inhibitor
